Reference: BindingDB's records for doi:10.1016/s0960-894x(01)00219-0 (Research Biomet. Glaxo Wellcome Medicines Research Centre, 2001)
pIC50: −log10 of the molar value.

Assays:
[1] = biological target: Receptor tyrosine-protein kinase erbB-2 (Rattus norvegicus, UniProt P06494); experiment: ChEBML_194950
From the text: Inhibition of rat Receptor protein-tyrosine kinase erbB2

[2] = Inhibition of erbB2 overexpressing HB4a.e5.2 cell proliferation
[3] = Inhibition of erbB2 overexpressing BT 474 cell proliferation
[4] = Inhibition of c-erbB-2 overexpressing HB4a cell proliferation

Receptor tyrosine-protein kinase erbB-2, sequence (P06494 whole entry): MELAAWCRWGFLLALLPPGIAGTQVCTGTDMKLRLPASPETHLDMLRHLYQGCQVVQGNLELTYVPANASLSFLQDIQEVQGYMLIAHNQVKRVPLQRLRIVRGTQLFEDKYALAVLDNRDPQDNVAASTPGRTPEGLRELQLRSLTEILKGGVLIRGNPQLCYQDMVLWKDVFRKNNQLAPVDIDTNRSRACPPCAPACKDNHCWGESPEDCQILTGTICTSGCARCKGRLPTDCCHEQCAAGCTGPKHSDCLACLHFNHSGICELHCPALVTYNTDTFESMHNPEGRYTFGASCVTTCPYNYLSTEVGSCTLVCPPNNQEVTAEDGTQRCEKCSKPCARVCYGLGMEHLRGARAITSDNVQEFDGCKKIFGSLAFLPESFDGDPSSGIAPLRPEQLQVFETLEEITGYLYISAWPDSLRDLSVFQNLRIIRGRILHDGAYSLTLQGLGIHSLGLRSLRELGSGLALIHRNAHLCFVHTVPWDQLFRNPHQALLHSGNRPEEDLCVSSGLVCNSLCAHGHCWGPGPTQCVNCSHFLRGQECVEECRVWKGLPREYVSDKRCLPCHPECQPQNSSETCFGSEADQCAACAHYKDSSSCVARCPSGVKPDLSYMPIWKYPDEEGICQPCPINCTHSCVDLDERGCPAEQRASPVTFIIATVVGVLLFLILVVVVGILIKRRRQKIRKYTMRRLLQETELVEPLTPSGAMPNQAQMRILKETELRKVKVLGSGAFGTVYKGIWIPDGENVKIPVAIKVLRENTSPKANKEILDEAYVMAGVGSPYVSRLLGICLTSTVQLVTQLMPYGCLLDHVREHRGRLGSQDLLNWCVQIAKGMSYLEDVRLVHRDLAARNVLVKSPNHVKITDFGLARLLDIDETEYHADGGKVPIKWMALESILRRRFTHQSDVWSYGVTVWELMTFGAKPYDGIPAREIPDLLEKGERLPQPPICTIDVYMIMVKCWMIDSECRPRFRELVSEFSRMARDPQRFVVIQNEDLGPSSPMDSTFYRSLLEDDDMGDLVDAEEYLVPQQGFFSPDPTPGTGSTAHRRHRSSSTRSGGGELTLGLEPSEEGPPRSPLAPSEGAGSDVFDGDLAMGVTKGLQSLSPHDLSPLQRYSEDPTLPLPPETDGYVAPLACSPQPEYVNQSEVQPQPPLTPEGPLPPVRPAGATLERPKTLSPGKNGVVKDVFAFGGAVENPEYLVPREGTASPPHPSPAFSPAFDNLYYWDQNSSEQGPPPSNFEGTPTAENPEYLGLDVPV

Compound | pIC50 [4] | also measured
CN(C)c1cc2c(Nc3ccc4c(cnn4Cc4ccccc4)c3)ncnc2cn1 [N*4*-(1-Benzyl-1H-indazol-5-yl)-N*6*,N*6*-dimethyl-pyrido[3,4-d]pyrimidine-4,6-diamine] |  | pIC50 [1]: 6.41; pIC50 [2]: 7.01; pIC50 [3]: 7.15
Nc1cc2c(Nc3ccc4nc(Cc5ccccc5)[nH]c4c3)ncnc2cn1 [N*4*-(2-Benzyl-1H-benzoimidazol-5-yl)-pyrido[3,4-d]pyrimidine-4,6-diamine] | 5.73 | 
Nc1cc2c(Nc3ccc4c(cnn4Cc4ccccc4)c3)ncnc2cn1 [N*4*-(1-Benzyl-1H-indazol-5-yl)-pyrido[3,4-d]pyrimidine-4,6-diamine] | 7.01 | 
COc1cc2ncnc(Nc3ccc4c(cnn4Cc4ccccc4)c3)c2cc1OC [(1-Benzyl-1H-indazol-5-yl)-(6,7-dimethoxy-quinazolin-4-yl)-amine] | 6.54 | 
c1ccc(Cn2cnc3cc(Nc4ncnc5ccccc45)ccc32)cc1 [(1-Benzyl-1H-benzoimidazol-5-yl)-quinazolin-4-yl-amine] | 4.57 | 
COc1cc2ncnc(Nc3ccc4nc(Cc5ccccc5)[nH]c4c3)c2cc1OC [(2-Benzyl-1H-benzoimidazol-5-yl)-(6,7-dimethoxy-quinazolin-4-yl)-amine] | 5.96 | 
c1ccc(Cn2ccc3cc(Nc4ncnc5ccccc45)ccc32)cc1 [(1-Benzyl-1H-indol-5-yl)-quinazolin-4-yl-amine] | 5.89 | 
c1ccc(Cc2nc3ccc(Nc4ncnc5ccccc45)cc3[nH]2)cc1 [(2-Benzyl-1H-benzoimidazol-5-yl)-quinazolin-4-yl-amine] | 5.89 | 
COc1cc2ncnc(Nc3ccc4c(ccn4Cc4ccccc4)c3)c2cc1OC [(1-Benzyl-1H-indol-5-yl)-(6,7-dimethoxy-quinazolin-4-yl)-amine] | 6.46 | 
COc1cc2ncnc(Nc3ccc4nn(Cc5ccccc5)cc4c3)c2cc1OC [(2-Benzyl-2H-indazol-5-yl)-(6,7-dimethoxy-quinazolin-4-yl)-amine] | 5.51 | 
c1ccc(Cn2cnc3ccc(Nc4ncnc5ccccc45)cc32)cc1 [(3-Benzyl-3H-benzoimidazol-5-yl)-quinazolin-4-yl-amine] | 4.68 | 
